Like-named read-outs stand apart in the source and are kept apart here.
Columns and labels:
[1] = system: deoxymyoglobin (deoxy-Mb); experiment: Myoglobin assay: conversion of deoxy-Mb to MbCO on direct addition of metal carbonyl; format: biochemical, horse; settings: direct addition to myoglobin solution (66 μM), no light
Experimental: The release of CO from metal carbonyl complexes was assessed spectrophotometrically by measuring the conversion of deoxymyoglobin (deoxy-Mb) to carbonmonoxy myoglobin (MbCO). MbCO has a distinctive absorption spectrum between 500 and 600 nm, and changes at 540 nm were used to quantify the amount of CO liberated. Myoglobin solutions (66 μM final concentration) were prepared freshly by dissolving the protein in 0.04 M phosphate buffer (pH 6.8). Sodium dithionite (0.1%) was added to convert myoglobin to deoxy-Mb prior to each reading. All the spectra were measured using a Helios a spectrophotometer.
Various metal carbonyl complexes were tested for their ability to elicit MbCO formation when added directly to a deoxy-Mb solution. To different extents, [Ru(CO)3Cl2]2, [Ru(CO)2(DMSO)2Cl2], [Ru(CO)3Cl2(cytosine)] and […] all released CO when added directly to the Mb solution.
The metal carbonyl complex was solubilized in DMSO (9.7 mM stock solution), aliquots of 2 to 32 μl were added directly to 1 ml of deoxy-Mb solutions (66 μM) and absorption spectrum determined immediately after mixing the samples by inversion.

[2] = system: deoxymyoglobin (deoxy-Mb); experiment: Light-induced CO release diffusing through a membrane into myoglobin solution; format: biochemical, horse; settings: for MbCO formation upon illumination: carbonyl solution exposed to cold light, gas diffusing through membrane
Experimental: Therefore release of CO was induced by exposing these metal carbonyl complexes to a cold light source and allowing the gas to diffuse through a membrane before reacting with myoglobin as shown in FIG. 1.
Five hundred microliters of iron pentacarbonyl ([Fe(CO)5], 99.9%) or 1 ml of dimanganese decacarbonyl ([Mn2(CO)10], 13 mM in DMSO) (see also chemical structure) were placed as carbonyl solution 2 in a plastic tube 1. A cell culture insert 3 (Costar) was sealed on top in order to create two separate chambers with a 0.6 cm air space between the solution 2 and an insert membrane 6 (Anapore™ 0.4 μm). 1.5 ml of deoxy-Mb solution (66 μM) was placed in the insert which was covered with Parafilm™ 5. The carbonyl solution was then exposed to cold light from a source 7 to stimulate CO release, allowing the gas to diffuse through the membrane 6 into the myoglobin solution 4. Aliquots of the myoglobin solution 4 were taken at different times and the conversion of deoxy-Mb to MbCO measured spectrophotometrically.

[3] = system: Rat vascular smooth muscle cells; experiment: Cell viability of vascular smooth muscle cells (colorimetric assay); format: cell-based; settings: 0-100 μM, 24 h in complete medium
Experimental: Rat vascular smooth muscle cells were obtained from the Coriell Cell Repository (Camden, N.J., USA) and grown in Dulbecco's […] (MEM) supplemented with 20% foetal calf serum, 2×MEM vitamins, 2×MEM non-essential and essential amino acids, penicillin (100 units/ml) and streptomycin (0.1 mg/ml). Confluent cells were treated with different concentrations of metal carbonyl (introduced as DMSO solution—see section B) for various times and cell viability was assessed using a colorimetric assay kit from Promega (Madison, Wis., USA) as previously described (47) after 3 or 24 h incubation, or after 3 h exposure to the agents followed by 21 h incubation in complete media. Results are expressed as the mean±s.e.m. of 6 independent experiments and differences were considered statistically significant at P<0.05 (*).

isolated rat hearts = settings: L-NAME 25 μM perfusion
Experimental: Langendorff heart preparations were performed using male Lewis rats (300-350 g) as previously described by our group (35). […] (pH 7.4). Coronary perfusion pressure (CPP), a parameter indicative of coronary vessel contractility, was continuously measured by a pressure transducer connected to the aortic cannula and data analyzed with an Acknowledge software (BIOPAC System Inc.).
Hearts removed either from control rats (vehicle-treated) or from animals that were pre-treated with the heme oxygenase-1 inducer hemin (75 μmol/kg, i.p.) the day before, were initially equilibrated for 20 min on the Langendorff apparatus and then perfused with L-NAME (25 μM final concentration) to elicit vasoconstriction. The extent of CPP increase by L-NAME was also monitored over time in hemin-treated animals that received a heme oxygenase inhibitor (SnPPIX, 40 μmol/kg) 1 h prior to heart excision and in control hearts that were perfused with buffer supplemented with [Mn2(CO)10] (13 μM final concentration). Since [Mn2(CO)10] releases CO only by photodissociation, Krebs buffer containing [Mn2(CO)10] was exposed to a cold light source immediately before entering the aortic cannula.

[4] = L-NAME-induced increase in mean arterial pressure in anaesthetised Lewis rats; format: in vivo, rat; settings: L-NAME 30 μmol/kg i.v.; [Ru(CO)3Cl2]2 60 μmol/kg i.v. 1 h before; hemin 75 μmol/kg i.p. 24 h before; SnPPIX 40 μmol/kg i.p.
Experimental: Lewis rats (280-350 g) were anaesthetised by intramuscular injection of 1 ml/kg Hypnorm (fentanyl 0.315 mg/ml and fluanisone 10 mg/ml) followed 5 min later by an intraperitoneal injection of 5 mg/kg diazepam. Specially designed femoral artery and venous catheters were then surgically implanted as previously described (40). The arterial cannula was connected to a Grass pressure transducer and blood pressure monitored continuously using a polygraph recorder. Experiments were conducted on anaesthetized animals and recordings were made within 30 min of the surgical procedure.
Control rats (vehicle-treated) and animals that were pre-treated with hemin (75 μmol/kg, i.p) 24 h prior to blood pressure monitoring were then administered with an intravenous injection of 30 μmol/Kg L-NAME to elicit an increase in mean arterial pressure. The extent of blood pressure increase by L-NAME was also monitored over time in hemin-treated animals that received SnPPIX (40 μmol/kg, i.p.) and in control rats previously injected with [Ru(CO)3Cl2]2 (60 μmol/kg, i.v.). In these two groups, SnPPIX or [Ru(CO)3Cl2]2 were administered to animals 1 h prior to L-NAME injection.

HO-1 = experiment: Expression of heme oxygenase-1 in rat hearts (immunostaining, Northern blot); format: in vivo; settings: 24 h after hemin treatment, i.p.
Experimental: For immunohistochemistry analysis, sections of heart muscles (5 μm thickness) were treated with 0.3% H2O2 in methanol to block endogenous peroxidase activity. Immunohistochemical staining was performed using rabbit polyclonal antibody against HO-1 (1:1000 dilution) as previously described (23). The presence of HO-1 was indicated by the development of a brown color. For Northern blot analysis, cardiac tissue was ground in a mortar under liquid nitrogen and suspended in guanidinium thiocyanate lysis buffer, Total RNA was then extracted using a modification of the method described by Chomczynski and Sacchi (49). RNA was run on a 1.3% denaturing agarose gel containing 2.2 M formaldehyde and transferred onto a nylon membrane overnight. The membrane was hybridized using [α-^32P]dCTP-labelled cDNA probes to rat HO-1 and GAPDH genes and bands analyzed using a densitometer as previously described (23, 50).
Hearts were removed from Lewis rats 24 h after treatment with vehicle (control) or hemin ([…], i.p.) and immunostaining for HO-1 was assessed. For Northern blot analysis, rats were treated with hemin (75 μmol/kg, i.p.) and hearts removed at different time points to assess HO-1 mRNA levels (+ve, positive control).

Compound	MbCO formation / CO release when added directly to deoxy-Mb solution [1]	MbCO formation upon illumination [2]	time to complete saturation of the myoglobin solution ([2]; 13 μmol/ml, continuous exposure to light)	cytotoxicity on smooth muscle cells [3]	effect on L-NAME-mediated vasoconstriction / rise in CPP (isolated rat hearts; listed as (Mn2(CO)10))	effect on L-NAME-mediated vasoconstriction / rise in CPP (isolated rat hearts; listed as [Mn2(CO10])	effect on L-NAME-mediated vasoconstriction / rise in CPP (isolated rat hearts)	effect on L-NAME-induced increase in blood pressure [4]	HO-1 protein and mRNA expression in hearts (HO-1)
[C-]#[O+].[C-]#[O+].[C-]#[O+].[C-]#[O+].[C-]#[O+].[Fe] [[Fe(CO)5], iron pentacarbonyl]	did not result in any appreciable formation of carbonmonoxy myoglobin	gradual increase in MbCO formation observed over time							
[C-]#[O+].[C-]#[O+].[C-]#[O+].[C-]#[O+].[C-]#[O+].[C-]#[O+].[C-]#[O+].[C-]#[O+].[C-]#[O+].[C-]#[O+].[Mn].[Mn] [[Mn2(CO)10], dimanganese decacarbonyl]	did not result in any appreciable formation of carbonmonoxy myoglobin	gradual increase in MbCO formation observed over time	approximately 40 min	no major cytotoxicity	unaffected	significantly delayed vasoconstriction and maintained CPP at much lower levels at the end of perfusion			
C=CC1=C(C)c2cc3[n-]c(cc4[n-]c(cc5nc(cc1n2)C(C)=C5C=C)c(C)c4CCC(=O)O)c(CCC(=O)O)c3C.[Cl-].[Fe+3] [hemin, ferriprotoporphyrin IX chloride]							markedly attenuated	significant suppression	highly expressed

From patent US8236339B2, “Therapeutic delivery of carbon monoxide” (priority 2001, dated 2012)
